Measured values published in patent US12496346B2, “Phospholipid-flavagline conjugates and methods of using the same for targeted cancer therapy” (Cellectar Biosciences, Inc., priority 2019, dated 2025).

What was measured:
Esophageal = experiment: Tumor uptake of PLE; type: in vivo; conditions: Endogenous Mouse, Adenocarcinoma
Method: (§1) Tumor cell uptake was measured continuously for 24 hours.

Glioma RG2 = experiment: Tumor uptake of PLE; type: in vivo; conditions: Rat xenograft
Method: as §1

TRAMP prostate = experiment: Tumor uptake of PLE; type: in vivo; conditions: Endogenous Mouse, Adenocarcinoma
Method: as §1

Lung A-549 (NSCLC) = experiment: Tumor uptake of PLE; type: in vivo; conditions: SCID Mouse, Adenocarcinoma
Method: as §1

Colon-51 = experiment: Tumor uptake of PLE; type: in vivo; conditions: SCID Mouse, Colorectal adenocarcinoma
Method: as §1

SCC6 = experiment: Tumor uptake of PLE; type: in vivo; conditions: Nude Mouse, Adenocarcinoma
Method: as §1

Breast MCF-7 = experiment: Tumor uptake of PLE; type: in vivo; conditions: Rat, Adenocarcinoma
Method: as §1

Mammary AC = experiment: Tumor uptake of PLE; type: in vivo; conditions: Apc^Min/+ mouse, Adenocarcinoma
Method: as §1

Hepatocellular Carcinoma = experiment: Tumor uptake of PLE; type: in vivo; conditions: Endogenous Mouse, Adenocarcinoma
Method: as §1

Breast 4T1 = experiment: Tumor uptake of PLE; type: in vivo; conditions: Endogenous Mouse (orthotopic), Adenocarcinoma
Method: as §1

SCC1 = experiment: Tumor uptake of PLE; type: in vivo; conditions: Nude Mouse, Squamous cell carcinoma
Method: as §1

Sarcoma (Meth-A) = experiment: Tumor uptake of PLE; type: in vivo; conditions: Nude Mouse, Fibrosarcoma
Method: as §1

Cervical = experiment: Tumor uptake of PLE; type: in vivo; conditions: Endogenous Mouse, Adenocarcinoma
Method: as §1

Glioma C6 = experiment: Tumor uptake of PLE; type: in vivo; conditions: Rat xenograft
Method: as §1

Lung NCI H-69 (Oat Cell) = experiment: Tumor uptake of PLE; type: in vivo; conditions: SCID Mouse, Adenocarcinoma
Method: as §1

Pancreatic c-myc = experiment: Tumor uptake of PLE; type: in vivo; conditions: Endogenous Mouse, Adenocarcinoma
Method: as §1

Retinoblastoma = experiment: Tumor uptake of PLE; type: in vivo; conditions: Endogenous Mouse, Blastoma
Method: as §1

Ovarian HTB-77 = experiment: Tumor uptake of PLE; type: in vivo; conditions: Nude Mouse, Adenocarcinoma
Method: as §1

Colon LS-180 = experiment: Tumor uptake of PLE; type: in vivo; conditions: Nude Mouse, Adenocarcinoma
Method: as §1

Renal Cell Caki-2 = experiment: Tumor uptake of PLE; type: in vivo; conditions: Nude Mouse (orthotopic), Adenocarcinoma
Method: as §1

Melanoma = experiment: Tumor uptake of PLE; type: in vivo; conditions: Mouse, Adenocarcinoma
Method: as §1

Mammary SCC = experiment: Tumor uptake of PLE; type: in vivo; conditions: Apc^Min/+ mouse, Squamous cell carcinoma
Method: as §1

Adrenal RL-251 = experiment: Tumor uptake of PLE; type: in vivo; conditions: SCID Mouse, Adenocarcinoma
Method: as §1

Glioma L9 = experiment: Tumor uptake of PLE; type: in vivo; conditions: Rat xenograft
Method: as §1

Colon DLDI = experiment: Tumor uptake of PLE; type: in vivo; conditions: SCID Mouse, Colorectal adenocarcinoma
Method: as §1

Melanoma A-375 = experiment: Tumor uptake of PLE; type: in vivo; conditions: Nude Mouse, Adenocarcinoma
Method: as §1

Colon CT-26 = experiment: Tumor uptake of PLE; type: in vivo; conditions: SCID Mouse, Adenocarcinoma
Method: as §1

Colon HT-29 = experiment: Tumor uptake of PLE; type: in vivo; conditions: SCID Mouse, Colorectal adenocarcinoma
Method: as §1

Pancreatic Kras = experiment: Tumor uptake of PLE; type: in vivo; conditions: Endogenous Mouse, Adenocarcinoma
Method: as §1

Prostate MatLyLu = experiment: Tumor uptake of PLE; type: in vivo; conditions: Rat, Adenocarcinoma
Method: as §1

Walker-256 = experiment: Tumor uptake of PLE; type: in vivo; conditions: Rat, Carcinosarcoma
Method: as §1

Pancreatic Capan-1 = experiment: Tumor uptake of PLE; type: in vivo; conditions: Nude Mouse, Adenocarcinoma
Method: as §1

Adrenal H-295 = experiment: Tumor uptake of PLE; type: in vivo; conditions: SCID Mouse, Adenocarcinoma
Method: as §1

Prostate LuCap = experiment: Tumor uptake of PLE; type: in vivo; conditions: Mouse, Adenocarcinoma
Method: as §1

Prostate PC-3 = experiment: Tumor uptake of PLE; type: in vivo; conditions: SCID Mouse, Adenocarcinoma
Method: as §1

Prostate LnCap = experiment: Tumor uptake of PLE; type: in vivo; conditions: Mouse, Adenocarcinoma
Method: as §1

Min Mouse Intestinal = experiment: Tumor uptake of PLE; type: in vivo; conditions: Endogenous Mouse, Adenocarcinoma
Method: as §1

Glioma CNS1 = experiment: Tumor uptake of PLE; type: in vivo; conditions: Rat xenograft
Method: as §1

Renal Cell ACHN = experiment: Tumor uptake of PLE; type: in vivo; conditions: Nude Mouse (orthotopic), Adenocarcinoma
Method: as §1

Pancreatic BXPC3 = experiment: Tumor uptake of PLE; type: in vivo; conditions: Nude Mouse, Adenocarcinoma
Method: as §1

ColonLS180 = experiment: Tumor uptake of PLE; type: in vivo; conditions: SCID Mouse, Colorectal adenocarcinoma
Method: as §1

[1] = system: Caki-2 tumor cells (human clear cell renal cell carcinoma); experiment: Selective uptake of PDC in co-culture; type: cell-based; conditions: 5 μM, 24 hours, co-culture with normal fibroblast
Method: (§2) Normal fibroblast and Caki-2 tumor cells (human clear cell renal cell carcinoma) were plated and co-cultured overnight (FIG. 1F). […] The next day cells were washed and co-stained with nucleus stain (Hoescht 33342). CLR 1501 was excited and then detected with an Alexa-Fluor 488 filter.

[2] = system: PC3 (grade IV, human prostate adenocarcinoma) cell lines; experiment: Co-localization with mitochondria; type: cell-based; conditions: 5 μM, 24 hours, Mitotracker
Source text: The cells were observed using Nikon A1R confocal microscope.

Normal fibroblast = experiment: Selective uptake of PDC in co-culture; type: cell-based; conditions: 5 μM, 24 hours, co-culture with Caki-2
Method: as §2

A549 cells = experiment: Uptake of PDC after disruption of lipid rafts; type: cell-based, human; conditions: lipid rafts disrupted with methyl b-cyclodextrin vs untreated cells; 5 μM, 24 hours
Method: A549 cells were plated overnight into separate wells.

[3] = system: Human prostate adenocarcinoma cells (PC3); experiment: Co-localization with endoplasmic reticulum; type: cell-based; conditions: 5 μM, 24 hours, ER-tracker
Source text: After washing, the cells were co-stained with ER-tracker® per protocol and imaged using Nikon A1R confocal light microscope. CLR 1501 and ER were excited and detected using Alexa-Fluor 488 using standard fluorescein filters.

Intestinal Polyp = experiment: Uptake in benign tissues; type: in vivo; conditions: Endogenous Mouse, Adenoma (benign)
[4] = system: Mammary alveolar hyperplasia; experiment: Uptake in benign tissues; type: in vivo; conditions: Endogenous Mouse
[5] = system: A549 (human lung adenocarcinoma); experiment: cells; type: cell-based; conditions: in vitro
in vitro [6] = conditions: mouse, plasma
Method: (§3) A small amount of molecule was exposed to plasma, and the plasma was then analyzed via HPLC or MS to determine if the molecule was degraded.

in vivo = type: in vivo, mice
Method: Listed in Table 5 are the doses administered to the mice, and how many mice were alive after treatment (“3/3” indicates 3 out of 3 mice were alive). […] MTD for CLR 1865 was between 5 and 10 mg/kg.

Plasma stability [7] = experiment: Plasma stability
Method: as §3

in vitro [8] = conditions: human, plasma
Method: as §3

Plasma stability [9] = conditions: mouse
Method: as §3

C[N+](C)(C)CCOP(=O)([O-])OCCCCCCCCCCCCCCCCCCc1ccc(C2=C3C=CC=[N+]3[B-](F)(F)n3cccc32)cc1 [CLR 1501]
Tumor Uptake (Esophageal): Yes | Tumor Uptake (Glioma RG2): Yes | Tumor Uptake (TRAMP prostate): Yes | Tumor Uptake (Lung A-549 (NSCLC)): Yes | Tumor Uptake (Colon-51): Yes | Tumor Uptake (SCC6): Yes | Tumor Uptake (Breast MCF-7): Yes | Tumor Uptake (Mammary AC): Yes | Tumor Uptake (Hepatocellular Carcinoma): Yes | Tumor Uptake (Breast 4T1): Yes | Tumor Uptake (SCC1): Yes | Tumor Uptake (Sarcoma (Meth-A)): Yes | Tumor Uptake (Cervical): Yes | Tumor Uptake (Glioma C6): Yes | Tumor Uptake (Lung NCI H-69 (Oat Cell)): Yes | Tumor Uptake (Pancreatic c-myc): Yes | Tumor Uptake (Retinoblastoma): Yes | Tumor Uptake (Ovarian HTB-77): Yes | Tumor Uptake (Colon LS-180): Yes | Tumor Uptake (Renal Cell Caki-2): Yes | Tumor Uptake (Melanoma): Yes | Tumor Uptake (Mammary SCC): Yes | Tumor Uptake (Adrenal RL-251): Yes | Tumor Uptake (Glioma L9): Yes | Tumor Uptake (Colon DLDI): Yes | Tumor Uptake (Melanoma A-375): Yes | Tumor Uptake (Colon CT-26): Yes | Tumor Uptake (Colon HT-29): Yes | Tumor Uptake (Pancreatic Kras): Yes | Tumor Uptake (Prostate MatLyLu): Yes | Tumor Uptake (Walker-256): Yes | Tumor Uptake (Pancreatic Capan-1): Yes | Tumor Uptake (Adrenal H-295): Yes | Tumor Uptake (Prostate LuCap): Yes | Tumor Uptake (Prostate PC-3): Yes | Tumor Uptake (Prostate LnCap): Yes | Tumor Uptake (Min Mouse Intestinal): Yes | Tumor Uptake (Glioma CNS1): Yes | Tumor Uptake (Renal Cell ACHN): Yes | Tumor Uptake (Pancreatic BXPC3): Yes | Tumor Uptake (ColonLS180): Yes | localization in Caki-2 cells [1]: highly localized | co-localization with mitochondria [2]: co-localized with mitochondria | localization in normal fibroblast cells (Normal fibroblast): minimally | reduction in uptake (A549 cells): 60% | co-localization with ER [3]: co-localized with ER in malignant

C[N+](C)(C)CCOP(=O)([O-])OCCCCCCCCCCCCCCCCCCc1ccc(I)cc1 [CLR1404]
Tumor Uptake (Intestinal Polyp): No | Tumor Uptake [4]: No

COc1ccc([C@@]23Oc4cc(OCCCCNC(=O)OCC(C)(C)SSCCCCCCCCCCCCCCCCCCOP(=O)([O-])OCC[N+](C)(C)C)cc(OC)c4[C@]2(O)[C@H](O)[C@H](C(=O)O)[C@H]3c2ccccc2)cc1 [CLR 1865]
Therapeutic Index (TI) ([5]; NHDF IC50 relative to cancer cell IC50): 11.64 | Therapeutic Index (TI), second value in parentheses ([5]; from the NHDF value in parentheses): (37.3) | half-life (in vitro [6]): 3.32 h | mice alive after treatment (in vivo; Dose 0.1 mg/kg): 3/3 | mice alive after treatment (in vivo; Dose 0.25 mg/kg): 3/3 | mice alive after treatment (in vivo; Dose 0.5 mg/kg): 3/3 | mice alive after treatment (in vivo; Dose 1.0 mg/kg): 3/3 | mice alive after treatment (in vivo; Dose 5.0 mg/kg): 3/3 | mice alive after treatment (in vivo; Dose 10.0 mg/kg): 2/3 | in vivo therapeutic index (in vivo; mice): ≥ 12.5 | tolerability compared to FLV3 alone (in vivo; mice): excellent improvement in tolerability | MTD (in vivo; mouse, in vivo, mice, read-out: maximum tolerated dose (MTD)): 5 to 10 mg/kg | human plasma stability (Plasma stability [7]): excellent human plasma stability | half-life (in vitro [8]): > 6.67 h | time stable in mouse plasma (Plasma stability [9]): 3.3 h
